In patent publication US9150592B2, “Heterocyclic nuclear hormone receptor modulators” (AbbVie Inc., priority 2012, dated 2015):

Target: T1, Glucocorticoid Receptor (GR) (Homo sapiens, UniProt P04150)
T1 construct: purchased Invitrogen P2893
T1 sequence (P04150 1-777): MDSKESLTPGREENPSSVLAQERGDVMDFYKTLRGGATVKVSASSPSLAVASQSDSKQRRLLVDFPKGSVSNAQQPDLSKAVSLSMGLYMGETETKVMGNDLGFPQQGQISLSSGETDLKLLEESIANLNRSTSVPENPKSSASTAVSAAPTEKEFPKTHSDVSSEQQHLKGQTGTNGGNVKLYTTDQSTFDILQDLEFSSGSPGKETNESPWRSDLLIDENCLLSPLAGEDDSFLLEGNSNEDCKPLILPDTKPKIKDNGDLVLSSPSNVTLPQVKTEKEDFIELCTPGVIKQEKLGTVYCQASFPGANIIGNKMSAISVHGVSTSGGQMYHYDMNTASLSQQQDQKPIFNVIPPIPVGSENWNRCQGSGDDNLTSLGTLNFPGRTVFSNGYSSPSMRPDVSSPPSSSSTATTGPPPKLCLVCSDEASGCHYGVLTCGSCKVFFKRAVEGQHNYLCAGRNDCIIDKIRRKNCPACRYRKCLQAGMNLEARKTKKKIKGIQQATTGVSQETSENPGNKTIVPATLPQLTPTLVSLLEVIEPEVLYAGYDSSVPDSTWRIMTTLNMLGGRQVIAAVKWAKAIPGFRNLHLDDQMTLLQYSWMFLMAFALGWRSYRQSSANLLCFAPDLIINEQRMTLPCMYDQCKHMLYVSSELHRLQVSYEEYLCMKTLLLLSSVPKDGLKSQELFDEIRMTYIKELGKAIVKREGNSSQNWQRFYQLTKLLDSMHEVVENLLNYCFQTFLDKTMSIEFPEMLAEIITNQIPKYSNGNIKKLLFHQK
Experiment: GR Fluorescence Polarization Assay (PolarScreen Glucocorticoid Receptor Competitor Assay, Red)
Conditions: IC50 class ranges, read-out: GR binding
Procedure: GR Fluorescence Polarization Assay
Fluorescence polarization assays were carried out using the PolarScreen™ Glucocorticoid Receptor Competitor Assay, Red from Invitrogen (P2893). The assay buffer was prepared according to the manufacturer's protocol and used to dilute the fluorescent glucocorticoid and GR. Compounds were prepared and serial diluted 1:4 in DMSO. Compound, fluorescent glucocorticoid and GR were added in a final volume of 20 μL and incubated overnight at 4° C. Fluorescent polarization was measured on the PerkinElmer Envision®.

Row | Structure (SMILES) | IC50 [nM]
1 | Cc1cc(Br)ccc1[C@H]1SC[C@@H](C)Nc2c1c(-c1nnco1)nn2C [M.63, 2-(4-(4-bromo-2-methylphenyl)-1,7-dimethyl-4,6,7,8-tetrahydro-1H-pyrazolo[3,4-e][1,4]thiazepin-3-yl)-1,3,4-oxadiazole] | 100 to 1000
2 | Cc1cc(C#N)ccc1C1SCCNc2c1c(-c1ccccn1)nn2C (single isomer, unassigned) [M.21, 3-methyl-4-(1-methyl-3-(pyridin-2-yl)-4,6,7,8-tetrahydro-1H-pyrazolo[3,4-e][1,4]thiazepin-4-yl)benzonitrile] | < 100
3 | Cn1nc(-c2ccccn2)c2c1NCCSC2c1ccc(-c2cnn(CC(N)=O)c2)cc1Cl (stereo not drawn) [U.17] | 100 to 1000
4 | COc1ccccc1C1SCCNc2c1c(C)nn2C (stereo not drawn) [D.98] | > 10000
5 | Cn1nc(-c2ccccn2)c2c1NCCSC2c1ccc(-c2cncc(C(N)=O)c2)cc1Cl (stereo not drawn) [U.7] | 1000 to 10000
6 | Cc1cc(C#CCO)ccc1[C@H]1SC[C@@H](C)Nc2c1c(-c1ccccn1)nn2C (single isomer, unassigned) [M.69, 3-(4-(1,7-dimethyl-3-(pyridin-2-yl)-4,6,7,8-tetrahydro-1H-pyrazolo[3,4-e][1,4]thiazepin-4-yl)-3-methylphenyl)prop-2-yn-1-ol] | 100 to 1000
7 | CCn1nc(-c2ccccn2)c2c1N[C@@H](C)CS[C@H]2c1ccc(CCC(C)(C)N)cc1C [Q.1] | 100 to 1000
8 | COC(=O)c1ccc(-c2nn(C)c3c2C(c2ccc(Cl)cc2Cl)SCCN3)nc1 (stereo not drawn) [E.6, methyl 6-[4-(2,4-dichlorophenyl)-1-methyl-4,6,7,8-tetrahydropyrazolo[3,4-e][1,4]thiazepin-3-yl]pyridine-3-carboxylate] | 1000 to 10000
9 | Cn1nc(-c2ccccn2)c2c1NCCSC2c1ccc(-c2cncnc2)cc1Cl (stereo not drawn) [U.2] | 1000 to 10000
10 | Cc1cc(C(=O)Nc2cccnc2C)ccc1C1CCC(=O)Nc2c1c(C)nn2C (stereo not drawn) [O.1, 4-(1,3-Dimethyl-7-oxo-1,4,5,6,7,8-hexahydropyrazolo[3,4-b]azepin-4-yl)-3-methyl-N-(2-methylpyridin-3-yl)benzamide] | 1000 to 10000
11 | COCCn1cc(-c2ccc(C3SCCNc4c3c(-c3ccccn3)nn4C)c(Cl)c2)cn1 (stereo not drawn) [U.15] | 1000 to 10000
12 | Cn1nc(-c2ccccn2)c2c1NCCSC2c1ccc(-c2cnc3nccnc3c2)cc1Cl (stereo not drawn) [U.11] | 1000 to 10000
13 | Cc1cc(CCC(C)(C)O)ccc1[C@H]1SC[C@@H](C)Nc2c1c(-c1ccccn1)nn2C (single isomer, unassigned) [M.43, 4-(4-(1,7-dimethyl-3-(pyridin-2-yl)-4,6,7,8-tetrahydro-1H-pyrazolo[3,4-e][1,4]thiazepin-4-yl)-3-methylphenyl)-2-methylbutan-2-ol] | 1000 to 10000
14 | CCn1nc(-c2ccccn2)c2c1N[C@H](C)CS[C@@H]2c1ccc(C#CCO)cc1C (single isomer, unassigned) [M.26, 3-(4-(1-ethyl-7-methyl-3-(pyridin-2-yl)-4,6,7,8-tetrahydro-1H-pyrazolo[3,4-e][1,4]thiazepin-4-yl)-3-methylphenyl)prop-2-yn-1-ol] | 1000 to 10000
15 | Cc1cc(C(=O)Nc2cccnc2C)ccc1[C@H]1SC[C@H](C)Nc2c1c(-c1ccncn1)nn2C (single isomer, unassigned) [M.59, 4-(1,7-dimethyl-3-(pyrimidin-4-yl)-4,6,7,8-tetrahydro-1H-pyrazolo[3,4-e][1,4]thiazepin-4-yl)-3-methyl-N-(2-methylpyridin-3-yl)benzamide] | 1000 to 10000
16 | Cn1nc(-c2ccccn2)c2c1NCCSC2c1ccc(-c2cnn(CCC#N)c2)cc1Cl (stereo not drawn) [U.16] | 100 to 1000
17 | Cn1nc(-c2ccc(Cl)c(Cl)c2)c2c1NCCSC2c1ccc(Cl)cc1Cl (stereo not drawn) [D.89] | 100 to 1000
18 | Cn1nc(-c2ccccn2)c2c1N(CC(N)=O)CCSC2c1ccc(Cl)cc1Cl (stereo not drawn) | 1000 to 10000
19 | COC(=O)c1ccc(C2SCCNc3c2c(-c2ccccn2)nn3C)cc1 (stereo not drawn) [E.2, methyl 4-[1-methyl-3-(2-pyridyl)-4,6,7,8-tetrahydropyrazolo[3,4-e][1,4]thiazepin-4-yl]benzoate] | 1000 to 10000

Row | Structure (SMILES) | IC50 [nM]
20 | Cn1nc(-c2ccccn2)c2c1NCCSC2c1ccc(-c2cnn(C3CCCCO3)c2)cc1Cl (stereo not drawn) [U.6] | 100 to 1000
21 | COC(=O)c1ccc(C2SC(C)(C)CNc3c2c(C)nn3C)c(C)c1 (stereo not drawn) [E.4, methyl 3-methyl-4-(1,3,6,6-tetramethyl-7,8-dihydro-4H-pyrazolo[3,4-e][1,4]thiazepin-4-yl)benzoate] | 100 to 1000
22 | Cc1ccc(C(=O)Nc2cccnc2C)cc1C1SC(C)(C)CNc2c1c(C1CC1)nn2C (stereo not drawn) [H.2] | > 10000
23 | Cn1nc(-c2ccc(C(N)=O)cn2)c2c1NCCSC2c1ccc(Cl)cc1Cl (stereo not drawn) [I.5] | 1000 to 10000
24 | Cc1nn(C)c2c1C(c1ccccn1)SCCN2 (stereo not drawn) [D.96] | > 10000
25 | Cn1nc(-c2ccccn2)c2c1NCCSC2c1ccc(-c2cnn(CCN3CCOCC3)c2)cc1Cl (stereo not drawn) [U.5] | 1000 to 10000
26 | CCn1nc(-c2ccccn2)c2c1N[C@H](C)CS[C@@H]2c1ccc(C#CC(C)(C)O)cc1C (single isomer, unassigned) [M.30, 4-(4-(1-ethyl-7-methyl-3-(pyridin-2-yl)-4,6,7,8-tetrahydro-1H-pyrazolo[3,4-e][1,4]thiazepin-4-yl)-3-methylphenyl)-2-methylbut-3-yn-2-ol] | 1000 to 10000
27 | Cc1nn(C)c2c1C(c1cccnc1)SCCN2 (stereo not drawn) [D.99] | > 10000
28 | Cc1ncccc1NC(=O)c1ccc([C@H]2SC[C@@H](C)Nc3c2c(-c2ccccn2)nn3C)c(C#N)c1 (single isomer, unassigned) [M.19, 3-cyano-4-(1,7-dimethyl-3-(pyridin-2-yl)-4,6,7,8-tetrahydro-1H-pyrazolo[3,4-e][1,4]thiazepin-4-yl)-N-(2-methylpyridin-3-yl)benzamide] | 1000 to 10000
29 | CNC(=O)c1ccc(C2SCCNc3c2c(-c2ccccn2)nn3C)c(Cl)c1 (stereo not drawn) [I.2] | 100 to 1000
30 | Cn1nc(-c2cccnc2)c2c1NCCSC2c1ccc(Cl)cc1Cl (stereo not drawn) [D.86] | 1000 to 10000
31 | Cc1cc(C#CCCO)ccc1[C@H]1SC[C@H](C)Nc2c1c(-c1ccccn1)nn2C (single isomer, unassigned) [M.53, 4-(4-(1,7-dimethyl-3-(pyridin-2-yl)-4,6,7,8-tetrahydro-1H-pyrazolo[3,4-e][1,4]thiazepin-4-yl)-3-methylphenyl)but-3-yn-1-ol] | 100 to 1000
32 | Cc1ccc(Oc2ccc(C3SC(C)(C)CNc4c3c(C)nn4C)cc2)cc1 (stereo not drawn) [D.78] | 100 to 1000
33 | CCn1nc(-c2ccccn2)c2c1N[C@@H](C)CS[C@@H]2c1ccc(C#CCO)cc1C (single isomer, unassigned) [M.25, 3-(4-(1-ethyl-7-methyl-3-(pyridin-2-yl)-4,6,7,8-tetrahydro-1H-pyrazolo[3,4-e][1,4]thiazepin-4-yl)-3-methylphenyl)prop-2-yn-1-ol] | 1000 to 10000
34 | Cn1nc(-c2ccccn2)c2c1NCCSC2c1ccc(-c2cncc(S(C)(=O)=O)c2)cc1Cl (stereo not drawn) [U.1, 4-(2-Chloro-4-(5-(methylsulfonyl)pyridin-3-yl)phenyl)-1-methyl-3-(pyridin-2-yl)-4,6,7,8-tetrahydro-1H-pyrazolo[3,4-e][1,4]thiazepine tris(trifluoroacetate)] | 1000 to 10000
35 | Cc1cccc(-c2nn(C)c3c2C(c2ccc(Cl)cc2C)SCCN3)n1 (stereo not drawn) | 1000 to 10000
36 | Cc1ncccc1NC(=O)c1ccc(C2SCCNc3c2c(-c2ccccn2)nn3C)c(Cl)c1 (stereo not drawn) | < 100
37 | CCn1nc(-c2ccccn2)c2c1N[C@H](C)CS[C@@H]2c1ccc(CCC(C)(C)O)cc1C (single isomer, unassigned) [M.38, 4-(4-(1-ethyl-7-methyl-3-(pyridin-2-yl)-4,6,7,8-tetrahydro-1H-pyrazolo[3,4-e][1,4]thiazepin-4-yl)-3-methylphenyl)-2-methylbutan-2-ol] | 100 to 1000

Tested on: IL-6 in A549 cells stimulated with IL-1β
Experiment: A549 Cell Assay to Measure Inflammation Markers (inhibition of IL-1β-induced IL-6)
Assay type: cell-based
Conditions: A549 Cell Assay to Measure Inflammation Markers; intrinsic activity, Emax class ranges
Procedure: A549 Cell Assay to Measure Inflammation Markers
Further dilution (1:250) of compound was made into assay medium and 50 μL/well diluted drug or DMSO/media control was applied to cells. After a 1 h pre-incubation in a temperature, CO2, and humidity controlled incubator, set to 37° C., 50 μL/well of 4 ng/mL IL-1β diluted in assay media, was applied to cultures. Assay plates, with a final volume of 200 μL/well and final concentrations of 0.1% DMSO and 1 ng/mL IL-1β were returned to incubator for a […] incubation period. Next, plates were spun at 183 g (1000 rpm in Beckman/Coulter Allegra 6KR centrifuge) for 10 min. Cell-free supernatant (150 μL/well) was collected and IL-6 was measured by MSD kit, following protocol of manufacturer, and using MSD SECTOR Imager 6000 instrument. […] Results were represented as IC50 and Emax values.

Row | Structure (SMILES) | A549 Emax
38 | Cc1cc(Cl)ccc1C1SCC(C)Nc2c1c(-c1ccccn1)nn2C (single isomer, unassigned) [(4S,7S)-4-(4-chloro-2-methylphenyl)-1,7-dimethyl-3-(pyridin-] | D (a compound with Emax<50%)
39 | Cc1cc(Cl)ccc1C1SCCNc2c1c(-c1ccccn1)nn2C (single isomer, unassigned) [(4S)-4-(4-chloro-2-methyl-phenyl)-1-methyl-3-(2-pyridyl)-4,6] | B (a compound with Emax>60%)
